Assay results published in PMC2935290 (Journal of immunology (Baltimore, Md. : 1950), 2010).
Substitutions are numbered along the chain they refer to. Where no end group is shown, it is not given here.

What was measured:
HLA-DPB1*0201 = molecular target: T1, HLA-DPB1*0201 (Homo sapiens, UniProt P04440+P20036, A65V/A84D/A85E/K98E); test: biochemical; type: binding
T1 sequence (P04440 30-258 A65V/A84D/A85E/K98E): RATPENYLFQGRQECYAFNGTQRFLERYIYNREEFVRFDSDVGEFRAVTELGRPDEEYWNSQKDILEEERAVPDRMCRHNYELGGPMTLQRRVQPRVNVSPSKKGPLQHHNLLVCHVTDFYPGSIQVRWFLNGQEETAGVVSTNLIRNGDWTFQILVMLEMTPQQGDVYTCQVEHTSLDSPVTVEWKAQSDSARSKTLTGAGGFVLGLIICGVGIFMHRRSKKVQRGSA
T1 sequence (P20036 29-260): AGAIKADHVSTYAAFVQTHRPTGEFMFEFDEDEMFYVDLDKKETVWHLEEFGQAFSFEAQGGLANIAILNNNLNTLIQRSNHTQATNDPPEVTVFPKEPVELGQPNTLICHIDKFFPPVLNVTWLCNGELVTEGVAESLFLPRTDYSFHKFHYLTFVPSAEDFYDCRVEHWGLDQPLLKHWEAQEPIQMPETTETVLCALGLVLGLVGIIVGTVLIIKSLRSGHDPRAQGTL

HLA-DPB1*0402 = molecular target: T2, HLA-DPB1*0402 (Homo sapiens, UniProt P04440+P20036, A65V/A84D/A85E/L207M); test: biochemical; type: binding
T2 sequence (P04440 30-258 A65V/A84D/A85E): T1 sequence (P04440 30-258 A65V/A84D/A85E/K98E) with E69K
T2 sequence (P20036 29-260): T1 sequence (P20036 29-260)

Row | Compound | IC50 (HLA-DPB1*0201) | IC50 (HLA-DPB1*0402)
1 | CC[C@H](C)[C@H](NC(=O)[C@H](C)NC(=O)[C@H](CC(=O)O)NC(=O)[C@H](CCCCN)NC(=O)[C@H](CC(C)C)NC(=O)[C@@H](NC(=O)[C@H](CCC(=O)O)NC(=O)[C@H](C)NC(=O)[C@H](Cc1ccccc1)NC(=O)[C@@H](NC(=O)[C@H](Cc1c[nH]cn1)NC(=O)[C@@H](NC(=O)[C@H](CCC(N)=O)NC(=O)[C@H](CC(C)C)NC(=O)[C@H](Cc1ccccc1)NC(=O)[C@@H](N)C(C)C)[C@@H](C)O)[C@@H](C)CC)C(C)C)C(=O)N[C@@H](CCCCN)C(=O)N[C@@H](CC(=O)O)C(=O)N[C@@H](CC(C)C)C(=O)O | 32 nM | 5.6 nM
2 | NNKYAASSYLSLTPE | 2.4 nM | 42 nM
3 | DTLRSYYADWYQQKPG | 188 nM | 1550 nM
4 | RSQPGLCNMYKDSHHPARTA | 4590 nM | 7780 nM
